Assay results reported in paper PMC9919951, “Ellagic Acid and Its Metabolites as Potent and Selective Allosteric Inhibitors of Liver Pyruvate Kinase” (Nutrients, 2023).
Entries after “also recorded” stand apart in the source; their conditions may differ. One block for each molecule: values may come before it.

Tests used:
PKL = biological target: T1, PKL (Homo sapiens, UniProt P30613); test: In vitro pyruvate kinase assay (Kinase-Glo Max luminescence), PKL; format: biochemical; conditions: for PKL IC50: 0.1 mM ADP, 0.125 mM PEP, rt 30 min, Inactive = less than 30% inhibition at 10 µM; for Change of PKL inhibitory activity relative to Uro D (5): removal of one hydroxyl group from 5
T1 construct: purchased BPS Bioscience
T1 sequence (P30613 1-543 isoform P30613-2): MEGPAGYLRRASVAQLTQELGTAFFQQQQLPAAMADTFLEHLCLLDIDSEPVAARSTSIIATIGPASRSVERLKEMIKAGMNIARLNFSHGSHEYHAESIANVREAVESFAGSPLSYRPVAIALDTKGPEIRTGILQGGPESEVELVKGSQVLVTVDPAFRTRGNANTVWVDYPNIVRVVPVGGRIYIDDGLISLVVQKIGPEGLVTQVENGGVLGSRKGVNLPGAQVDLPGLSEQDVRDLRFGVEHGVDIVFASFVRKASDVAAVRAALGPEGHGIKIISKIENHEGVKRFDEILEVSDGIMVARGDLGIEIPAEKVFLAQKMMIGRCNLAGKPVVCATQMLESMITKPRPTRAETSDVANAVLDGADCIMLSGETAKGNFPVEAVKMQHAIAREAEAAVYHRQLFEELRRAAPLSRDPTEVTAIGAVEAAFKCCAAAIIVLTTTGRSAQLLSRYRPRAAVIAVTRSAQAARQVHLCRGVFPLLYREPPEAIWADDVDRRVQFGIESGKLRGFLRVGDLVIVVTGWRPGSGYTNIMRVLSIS
Text: (§1) In the absence of the compound, the intensity (Ce) in each data set was defined as 100% activity.

PKM1 = PKM1 (Homo sapiens, UniProt P14618); test: In vitro pyruvate kinase assay, PKM1; format: biochemical
Chain of PKM1 (P14618 1-531 isoform P14618-2): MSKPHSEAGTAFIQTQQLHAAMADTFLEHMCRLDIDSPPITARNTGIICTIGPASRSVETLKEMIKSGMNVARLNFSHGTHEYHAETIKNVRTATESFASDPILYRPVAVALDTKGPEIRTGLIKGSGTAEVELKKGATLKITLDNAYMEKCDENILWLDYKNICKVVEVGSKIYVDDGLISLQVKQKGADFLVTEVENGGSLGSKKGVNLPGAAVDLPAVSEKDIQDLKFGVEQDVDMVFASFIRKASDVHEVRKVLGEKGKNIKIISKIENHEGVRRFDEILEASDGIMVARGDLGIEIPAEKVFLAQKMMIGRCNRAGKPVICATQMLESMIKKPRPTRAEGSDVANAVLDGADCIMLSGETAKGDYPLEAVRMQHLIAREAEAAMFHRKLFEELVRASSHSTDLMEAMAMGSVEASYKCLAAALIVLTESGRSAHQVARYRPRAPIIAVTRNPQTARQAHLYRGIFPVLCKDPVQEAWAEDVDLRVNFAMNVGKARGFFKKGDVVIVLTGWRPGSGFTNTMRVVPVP
Text: as §1

PKR = biological target: T2, PKR (Homo sapiens, UniProt P30613); test: In vitro pyruvate kinase assay (Kinase-Glo Max luminescence), PKR; format: biochemical; conditions: for PKR IC50: 0.1 mM ADP, 0.125 mM PEP, rt 30 min, Inactive = less than 30% inhibition at 10 µM
T2 construct: purchased BPS Bioscience
T2 sequence (P30613 whole entry): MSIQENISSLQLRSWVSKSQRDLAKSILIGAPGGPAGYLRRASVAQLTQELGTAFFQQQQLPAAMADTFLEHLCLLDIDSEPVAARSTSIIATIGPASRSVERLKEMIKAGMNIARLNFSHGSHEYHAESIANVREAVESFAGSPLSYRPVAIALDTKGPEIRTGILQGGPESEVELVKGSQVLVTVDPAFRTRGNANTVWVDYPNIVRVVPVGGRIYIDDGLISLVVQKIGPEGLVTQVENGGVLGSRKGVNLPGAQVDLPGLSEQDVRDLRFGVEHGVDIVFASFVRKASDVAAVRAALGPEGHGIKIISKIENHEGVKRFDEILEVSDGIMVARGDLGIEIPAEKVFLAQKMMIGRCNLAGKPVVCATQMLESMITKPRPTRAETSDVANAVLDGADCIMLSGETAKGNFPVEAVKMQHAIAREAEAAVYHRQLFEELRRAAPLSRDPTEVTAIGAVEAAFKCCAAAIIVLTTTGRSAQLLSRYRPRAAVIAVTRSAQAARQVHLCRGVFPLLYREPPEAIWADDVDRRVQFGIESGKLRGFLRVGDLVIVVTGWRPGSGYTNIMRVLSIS
Text: as §1

PKM2 = PKM2 (Homo sapiens, UniProt P14618); test: In vitro pyruvate kinase assay, PKM2; format: biochemical; conditions: printed in the PKM2 IC50 column; footnote a: value refers to EC50; read-out: PKM2 EC50 (compound behaves as an activator)
Chain of PKM2 (P14618 whole entry): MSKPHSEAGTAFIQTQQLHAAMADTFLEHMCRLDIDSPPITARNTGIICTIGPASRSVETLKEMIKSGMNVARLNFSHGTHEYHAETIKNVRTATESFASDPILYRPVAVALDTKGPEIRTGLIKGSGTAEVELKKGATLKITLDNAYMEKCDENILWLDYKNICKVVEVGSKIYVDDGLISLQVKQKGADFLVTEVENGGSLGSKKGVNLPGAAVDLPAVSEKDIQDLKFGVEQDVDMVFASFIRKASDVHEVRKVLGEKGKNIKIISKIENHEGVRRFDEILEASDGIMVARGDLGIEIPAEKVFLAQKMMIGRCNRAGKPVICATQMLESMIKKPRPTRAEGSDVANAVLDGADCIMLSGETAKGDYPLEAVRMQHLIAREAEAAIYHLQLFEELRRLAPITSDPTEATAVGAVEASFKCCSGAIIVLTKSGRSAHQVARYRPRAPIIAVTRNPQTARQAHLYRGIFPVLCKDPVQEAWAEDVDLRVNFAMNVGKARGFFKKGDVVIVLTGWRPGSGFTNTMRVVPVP
Text: as §1

Structure (SMILES): O=c1oc2c(O)c(O)cc3c(=O)oc4c(O)c(O)cc1c4c23 [Compound 1, ellagic acid]
IC50 (PKL): 32 nM
Mode of PKL inhibition (PKL; different concentrations of ADP, activity independent of substrate concentration): non-competitive allosteric inhibitor
IC50 (PKM1): 81000 nM
IC50 (PKR): 4700 nM
EC50 (PKM2): 70 nM

Structure (SMILES): O=c1cc(-c2ccc(O)c(O)c2)oc2cc(O)cc(O)c12 [Compound 2, luteolin]
IC50 (PKL): 12000 nM
IC50 (PKR): > 100000 nM

Structure (SMILES): Oc1cc(O)c2cc(O)c(-c3ccc(O)c(O)c3)[o+]c2c1 [Compound 3, cyanidin]
IC50 (PKL): 2100 nM
IC50 (PKR): 7400 nM

Structure (SMILES): O=c1oc2c(O)c(O)ccc2c2cc(O)c(O)cc12 [Compound 5, urolithin D]
IC50 (PKL): 28 nM
IC50 (PKM1): 36000 nM
IC50 (PKR): 1270 nM
EC50 (PKM2): 30 nM

Structure (SMILES): O=c1occc2cc(O)c(O)cc12 [Compound 6, 6,7-dihydroxy-1H-isochromen-1-one]
melting point: 265 to 267 °C
PKL IC50 (PKL): Inactive ^b
PKR IC50 (PKR): Inactive ^b

Structure (SMILES): O=c1ccc2ccc(O)c(O)c2o1 [Compound 7]
PKL IC50 (PKL): Inactive ^b
PKR IC50 (PKR): Inactive ^b

Structure (SMILES): Oc1ccc(-c2ccc(O)c(O)c2O)c(O)c1O [Compound 8, [1,1’-Biphenyl]-2,2’,3,3’,4,4’-hexaol]
melting point: > 350 °C
IC50 (PKL): 3500 nM
IC50 (PKR): 12000 nM

Structure (SMILES): Oc1ccc(-c2ccc(O)c(O)c2)cc1O [Compound 9, [1,1’-biphenyl]-3,3’,4,4’-tetraol]
IC50 (PKL): 2400 nM
IC50 (PKR): 5100 nM

Structure (SMILES): O=c1oc2cc(O)ccc2c2cc(O)c(O)cc12 [Compound 10, 3,8,9-trihydroxy-6H-benzo[c]chromen-6-one]
IC50 (PKL): 410 nM
Change of PKL inhibitory activity relative to Uro D (5) (PKL): reduced by approximately one order of magnitude
IC50 (PKR): 2600 nM

Now from value to molecule, other results behind:

PKR IC50 (PKR): Inactive ^b
Structure (SMILES): O=c1oc2cc(O)ccc2c2ccc(O)cc12 [Compound 11, Urolithin A]
PKL IC50 (PKL): no inhibition was observed; also recorded: Inactive ^b

PKR IC50 (PKR): Inactive ^b
Structure (SMILES): O=c1oc2cc(O)ccc2c2ccccc12 [Compound 12, Urolithin B]
PKL IC50 (PKL): no inhibition was observed; also recorded: Inactive ^b

melting point: 345 to 347 °C
IC50 (PKL): 3900 nM
Change of PKL inhibitory activity relative to Uro D (5) (PKL): hundred-fold reduction in activity
IC50 (PKR): 43000 nM
Structure (SMILES): O=c1oc2c(O)cccc2c2cc(O)c(O)cc12 [Compound 13, 4,8,9-Trihydroxy-6H-benzo[c]chromen-6-one]

IC50 (PKL): 2100 nM
IC50 (PKR): 68000 nM
Structure (SMILES): O=c1oc2c(O)c(O)ccc2c2cc(O)ccc12 [Compound 14, 3,4,9-Trihydroxy-6H-benzo[c]chromen-6-one]

IC50 (PKL): 1700 nM
Change of PKL inhibitory activity relative to Uro D (5) (PKL): dramatically reduced inhibitory activity
IC50 (PKR): > 100000 nM
Structure (SMILES): O=c1oc2c(O)c(O)ccc2c2ccc(O)cc12 [Compound 15, 3,4,8-Trihydroxy-6H-benzo[c]chromen-6-one]

EC50 (PKL; printed in the PKL IC50 column, footnote a: value refers to EC50, read-out: PKL EC50 (compound behaves as an activator)): 20 nM
PKM1 IC50 (PKM1): Inactive
EC50 (PKR; printed in the PKR IC50 column, footnote a: value refers to EC50, read-out: PKR EC50 (compound behaves as an activator)): 10 nM
EC50 (PKM2): 50 nM
Structure (SMILES): O=C(COP(=O)(O)O)[C@@H](O)[C@H](O)[C@H](O)COP(=O)(O)O [FBP, Fructose-1,6-biphosphate, reference compound]
